From patent publication US20230416786A1, “USE OF AMINOQUINOLINE COMPOUNDS FOR HIGHER GENE INTEGRATION” (CELLECTIS SA, priority 2020, published 2023)
Where a name gives a salt, the structure may show the parent alone. Read-outs that look alike come from different tables or passages of the source.

Key:
HSCs = assay: Targeted integration of HLA-E repair template at the B2M locus in HSCs (B2M TALEN + AAV-HLA-E, flow cytometry of HLA-E positive cells); type: cell-based, human
Excerpt: (§1) The targeted sequences are […]gctcgcgctactc[…]
For HSCs, AAV-HLA-E particles was thawed on ice and aliquot to transduce each of the HSC samples at 10^4 viral genome per cell (vg/cell).

primary T-cells = conditions: Example 3, FIG. 3, TRAC TALEN + AAV-CAR-MESO, without chloroquine 29%
Excerpt: as §1

CCN(CC)CCCC(C)Nc1ccnc2cc(Cl)ccc12 (centres unmarked) [chloroquine, N4-(7-chloroquinolin-4-yl)-N1,N1-diethylpentane-1,4-diamine diphosphate]
HLA-E expression (reflects targeted integration at the B2M locus) (HSCs; Example 2, FIG. 2, B2M TALEN with HLA-E repair matrix, chloroquine 0.1 mM, without chloroquine 23.4%): ~38% | optimum CQ dose for HLA-E positive cells (HSCs; Example 4, FIG. 4, B2M TALEN + AAV-HLA-E): 0.02 nM | percentage of HLA-E positive cells (HSCs; Example 6, FIG. 6E, B2M TALEN + i53 mRNAs (inhibition of 53BP1) + AAV-HLA-E combined with chloroquine 0.02 mM, control 31.5%): 63.6% | percentage of HLA-E positive cells (HSCs; Example 6, FIGS. 6B and 6C, B2M TALEN + AAV-HLA-E, without 53BP1 inhibition, chloroquine 0.02 mM, without any compound 31.5%): 53.4% | CAR positive cells (nuclease-induced targeted integration at TRAC locus) (primary T-cells; chloroquine 0.05 mM): 35% | CAR positive cells (nuclease-induced targeted integration at TRAC locus) (primary T-cells; second chloroquine concentration (0.1 mM per first sentence)): 33.8%

CCN(CCO)CCCC(C)Nc1ccnc2cc(Cl)ccc12 (centres unmarked) [hydroxychloroquine, 7-Chloro-4-[4-(N-ethyl-N-b-hydroxyethylamino)-1-methylbutylamino]quinoline sulfate]
percentage of HLA-E positive cells (HSCs; Example 5, FIG. 5, B2M TALEN + AAV-HLA-E, compound 0.02 mM, without any compound 33.3%): 43.4%

i53: mRNAs encoding i53 (SEQ ID NO. 40), a 53BP1 inhibitor, co-electroporated with B2M TALEN
percentage of HLA-E positive cells (HSCs; Example 6, FIGS. 6B and 6D, B2M TALEN + 4 μg/million cells mRNAs encoding i53 + AAV-HLA-E, without chloroquine, control 31.5%): 39.9%
